Experimental data taken from patent publication US8563542B2 (Cyclacel Limited, priority 2007, dated 2013).

Assays:
PLK1 = PLK1 (Homo sapiens, UniProt P53350); assay: PLK1 protein kinase assay (CDC25C phosphorylation, [γ-32P]-ATP); type: biochemical; conditions: Table 2, PLK1 IC50; class symbols; read-out: PLK1 IC50
AA = target: T1, AA (Homo sapiens, UniProt O14965); assay: AA IC50 (Table 1; no method given); type: biochemical; conditions: Table 2, AurA IC50; class symbols; read-out: AurA IC50
T1 sequence (O14965 1-403): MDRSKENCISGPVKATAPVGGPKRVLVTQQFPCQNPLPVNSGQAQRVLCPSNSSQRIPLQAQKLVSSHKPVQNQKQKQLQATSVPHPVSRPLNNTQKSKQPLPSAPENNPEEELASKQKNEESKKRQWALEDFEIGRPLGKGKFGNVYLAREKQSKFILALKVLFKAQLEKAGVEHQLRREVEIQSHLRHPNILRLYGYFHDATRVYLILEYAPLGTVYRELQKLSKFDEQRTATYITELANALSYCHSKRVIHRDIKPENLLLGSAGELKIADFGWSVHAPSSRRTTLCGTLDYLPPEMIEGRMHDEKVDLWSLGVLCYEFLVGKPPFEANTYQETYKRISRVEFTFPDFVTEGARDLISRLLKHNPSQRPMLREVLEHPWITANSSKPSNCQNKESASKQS

Sequence of PLK1 (P53350 whole entry): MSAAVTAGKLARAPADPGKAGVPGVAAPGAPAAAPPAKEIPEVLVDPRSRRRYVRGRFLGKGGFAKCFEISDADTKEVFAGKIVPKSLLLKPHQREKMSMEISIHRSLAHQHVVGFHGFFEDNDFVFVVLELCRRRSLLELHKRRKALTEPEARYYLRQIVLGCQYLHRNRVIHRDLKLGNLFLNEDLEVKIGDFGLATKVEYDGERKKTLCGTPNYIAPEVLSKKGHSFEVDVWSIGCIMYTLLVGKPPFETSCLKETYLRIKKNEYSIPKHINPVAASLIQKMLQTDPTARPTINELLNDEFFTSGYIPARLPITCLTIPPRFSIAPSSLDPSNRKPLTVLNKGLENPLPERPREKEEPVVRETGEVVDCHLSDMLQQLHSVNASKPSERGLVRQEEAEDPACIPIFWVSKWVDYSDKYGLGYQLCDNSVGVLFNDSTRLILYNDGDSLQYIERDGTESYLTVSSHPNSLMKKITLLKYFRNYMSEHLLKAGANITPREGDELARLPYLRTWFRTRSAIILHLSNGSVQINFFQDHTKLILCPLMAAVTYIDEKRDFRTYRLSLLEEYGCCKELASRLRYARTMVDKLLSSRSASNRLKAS

Compound	IC50 (PLK1) [nM]	IC50 (AA) [nM]
CC(=O)N(C)S(=O)(=O)c1ccc(Nc2ncc3c(n2)N(C2CCCC2)CCC(=O)N3C)cc1 [compound 97, N-Acetyl-4-(9-cyclopentyl-5-methyl-6-oxo-6,7,8,9-tetrahydro-5H-pyrimido[4,5-b][1,4]diazepin-2-ylamino)-N-methyl-benzenesulfonamide]	< 10000	< 100
CN1CCC(NS(=O)(=O)c2cccc(Nc3ncc4c(n3)N(C3CCCC3)CCC(=O)N4C)c2)CC1 [compound 103, 3-(9-Cyclopentyl-5-methyl-6-oxo-6,7,8,9-tetrahydro-5H-pyrimido[4,5-b][1,4]diazepin-2-ylamino)-N-(1-methyl-piperidin-4-yl)-benzenesulfonamide]	< 10000	< 1000
COCCNS(=O)(=O)c1ccc(Nc2ncc3c(n2)N(C2CCCC2)CCC(=O)N3C)cc1 [compound 104, 4-(9-Cyclopentyl-5-methyl-6-oxo-6,7,8,9-tetrahydro-5H-pyrimido[4,5-b][1,4]diazepin-2-ylamino)-N-(2-methoxy-ethyl)-benzenesulfonamide]	< 10000	< 100
CN1C(=O)C2(CCC2)CN(C2CCCC2)c2nc(Nc3ccc4c(c3)CS(=O)(=O)C4)ncc21 [compound 117, (9-Cyclopentyl-2-(2,2-dioxo-2,3-dihydro-1H-2lambda*6*-benzo[c]thiophen-5-ylamino)5-methyl-6-oxo-6,7,8,9-tetrahydro-5H-spiro[pyrimido[4,5-b][1,4]diazepin-3,1′-cyclobutane+]	< 1000	< 1000
C=CCN1CCC(=O)N(C)c2cnc(Nc3ccc4c(c3)CS(=O)(=O)C4)nc21 [compound 119, 9-Allyl-2-(2,2-dioxo-2,3-dihydro-1H-2lambda*6*-benzo[c]thiophen-5-ylamino)-5-methyl-5,7,8,9-tetrahydro-pyrimido[4,5-b][1,4]diazepin-6-one]	< 10000	< 100
CN1C(=O)CCN(C2CCCC2)c2nc(Nc3ccc(Cl)cc3)ncc21 [compound 123, 2-(4-Chloro-phenylamino)-9-cyclopentyl-5-methyl-5,7,8,9-tetrahydro-pyrimido[4,5-b][1,4]diazepin-6-one]	< 1000	< 1000

More lines, now with the values ahead:

IC50 (PLK1) [nM]	IC50 (AA) [nM]	Compound
< 10000	< 1000	COCCNS(=O)(=O)c1cccc(Nc2ncc3c(n2)N(C2CCCC2)CCC(=O)N3C)c1 [compound 108, 3-(9-Cyclopentyl-5-methyl-6-oxo-6,7,8,9-tetrahydro-5H-pyrimido[4,5-b][1,4]diazepin-2-ylamino)-N-(2-methoxy-ethyl)-benzenesulfonamide]
< 1000	< 1000	CN1C(=O)CCN(C2CCCC2)c2nc(Nc3cccc(S(=O)(=O)N4CCCC4)c3)ncc21 [compound 109, 9-Cyclopentyl-5-methyl-2-[3-(pyrrolidine-1-sulfonyl)-phenylamino]-5,7,8,9-tetrahydro-pyrimido[4,5-b][1,4]diazepin-6-one]
< 10000	< 1000	CN1C(=O)CCN(C2CCCC2)c2nc(Nc3cccc(S(=O)(=O)NCc4ccccc4)c3)ncc21 [compound 110, N-Benzyl-3-(9-cyclopentyl-5-methyl-6-oxo-6,7,8,9-tetrahydro-5H-pyrimido[4,5-b][1,4]diazepin-2-ylamino)-benzenesulfonamide]
< 10000	< 100	CC(C)N1CCC(=O)N(C)c2cnc(Nc3ccc4c(c3)CS(=O)(=O)C4)nc21 [compound 115, 2-(2,2-Dioxo-2,3-dihydro-1H-2lambda*6*- benzo[c]thiophen-5-ylamino)-9-isopropyl-5-methyl-5,7,8,9-tetrahydro-pyrimido[4,5-b][1,4]diazepin-6-one]
< 10000	< 10000	CN1C(=O)CCN(C2CCCC2)c2nc(NCc3ccco3)ncc21 [compound 124, 9-Cyclopentyl-2-[(furan-2-ylmethyl)-amino]-5-methyl-5,7,8,9-tetrahydro-pyrimido[4,5-b][1,4]diazepin-6-one]
